Results as given in ChEMBL document CHEMBL1201862, “PubChem BioAssay data set” (2004).
Calls of active or inactive are those of the source.

How the values were obtained:
[1] = target: Heat shock protein HSP 90-alpha (Homo sapiens, UniProt P07900); assay type: functional, organism-based
[2] = cells
[3] = viability of uninfected HEp-2 cells – cell-based, HTS, cytotoxicity control for RSV inhibitor project, dose response (AID 2410); assay type: functional; details: human respiratory syncytial virus
[4] = growth inhibition of yeast DHODH-expressing 3D7 parasites – SYBR Green, dry powder samples, dose response (AID 1159570); assay type: functional, cell-based;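 also: parasite growth measured after 72 hours of compound exposure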
[5] = P. falciparum Dd2 growth inhibitors, dose response, SYBR Green, cherry-picked samples (AID 1159567); assay type: functional, cell-based
[6] = growth inhibition of PfATP4-mutant resistant parasites – NITD609-resistant line, SYBR Green, dry powder, dose response (AID 1159571); assay type: functional, cell-based;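 also: parasites synchronized at ring stage by sorbitol before testing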
[7] = Dd2 malaria parasite growth inhibition potency – SYBR Green, dry powder samples, dose response (AID 1159566); assay type: functional, cell-based;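 also: potency for growth inhibition with lower SYBR green DNA signal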
[8] = Luminescence Cell-Based Dose Confirmation HTS to Identify Inhibitors of Platelet Dense Granule Release. [Related pubchem assays: 1663 (Primary HTS), 1678 (Summary of Project)]; assay type: functional
[9] = target: Luciferin 4-monooxygenase (Photinus pyralis, UniProt P08659); assay: inhibition of purified Photinus pyralis luciferase – biochemical, luminescence, dose response (AID 1891)
Luciferin 4-monooxygenase, sequence (P08659 whole entry): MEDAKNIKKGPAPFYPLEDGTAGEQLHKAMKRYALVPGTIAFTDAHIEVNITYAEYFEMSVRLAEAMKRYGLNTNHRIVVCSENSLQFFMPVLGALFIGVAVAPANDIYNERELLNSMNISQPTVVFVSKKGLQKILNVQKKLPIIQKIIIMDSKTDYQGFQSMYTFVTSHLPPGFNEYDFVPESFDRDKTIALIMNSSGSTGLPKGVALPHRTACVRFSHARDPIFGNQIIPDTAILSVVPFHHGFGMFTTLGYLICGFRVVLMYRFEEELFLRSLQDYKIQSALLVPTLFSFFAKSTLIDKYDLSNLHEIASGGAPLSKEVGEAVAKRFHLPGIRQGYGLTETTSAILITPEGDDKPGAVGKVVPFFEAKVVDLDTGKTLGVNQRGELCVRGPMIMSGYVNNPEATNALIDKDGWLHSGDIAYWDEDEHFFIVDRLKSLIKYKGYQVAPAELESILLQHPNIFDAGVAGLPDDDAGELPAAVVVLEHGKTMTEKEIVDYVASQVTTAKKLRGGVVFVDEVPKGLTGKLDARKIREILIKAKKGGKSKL

[10] = target: T1, Mannose-6-phosphate isomerase (Homo sapiens, UniProt P34949); assay: MPI inhibition at elevated mannose 6-phosphate – biochemical, fluorescence intensity, high mannose 6-phosphate, primary screen (AID 1220)
T1 sequence (P34949 whole entry): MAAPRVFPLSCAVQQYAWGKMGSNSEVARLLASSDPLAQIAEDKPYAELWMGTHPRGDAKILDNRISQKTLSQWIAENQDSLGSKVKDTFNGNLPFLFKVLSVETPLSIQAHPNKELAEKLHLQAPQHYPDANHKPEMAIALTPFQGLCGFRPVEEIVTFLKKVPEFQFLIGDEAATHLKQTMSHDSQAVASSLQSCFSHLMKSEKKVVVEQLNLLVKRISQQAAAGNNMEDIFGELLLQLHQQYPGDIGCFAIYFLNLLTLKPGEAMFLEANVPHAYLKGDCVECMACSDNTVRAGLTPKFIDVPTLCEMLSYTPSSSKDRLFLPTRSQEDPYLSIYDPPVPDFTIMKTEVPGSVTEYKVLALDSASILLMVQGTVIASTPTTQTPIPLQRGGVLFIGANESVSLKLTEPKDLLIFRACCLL

[11] = NIH-3T3 fibroblast cytotoxicity, dose response, cytotoxicity control, cell-based, fluorescence, Alamar Blue, secondary assay (AID 2327); assay type: functional;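 also: NIH-3T3 mouse fibroblasts cultured with fluconazole at 8 µg/mL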
[12] = target: Genome polyprotein (dengue virus type 2, UniProt P29990); assay: flavivirus cap methylation enzyme inhibition – biochemical, confirmation dose response, primary screen (AID 588689); assay type: functional
Genome polyprotein, sequence (P29990 2492-3391 limits assumed): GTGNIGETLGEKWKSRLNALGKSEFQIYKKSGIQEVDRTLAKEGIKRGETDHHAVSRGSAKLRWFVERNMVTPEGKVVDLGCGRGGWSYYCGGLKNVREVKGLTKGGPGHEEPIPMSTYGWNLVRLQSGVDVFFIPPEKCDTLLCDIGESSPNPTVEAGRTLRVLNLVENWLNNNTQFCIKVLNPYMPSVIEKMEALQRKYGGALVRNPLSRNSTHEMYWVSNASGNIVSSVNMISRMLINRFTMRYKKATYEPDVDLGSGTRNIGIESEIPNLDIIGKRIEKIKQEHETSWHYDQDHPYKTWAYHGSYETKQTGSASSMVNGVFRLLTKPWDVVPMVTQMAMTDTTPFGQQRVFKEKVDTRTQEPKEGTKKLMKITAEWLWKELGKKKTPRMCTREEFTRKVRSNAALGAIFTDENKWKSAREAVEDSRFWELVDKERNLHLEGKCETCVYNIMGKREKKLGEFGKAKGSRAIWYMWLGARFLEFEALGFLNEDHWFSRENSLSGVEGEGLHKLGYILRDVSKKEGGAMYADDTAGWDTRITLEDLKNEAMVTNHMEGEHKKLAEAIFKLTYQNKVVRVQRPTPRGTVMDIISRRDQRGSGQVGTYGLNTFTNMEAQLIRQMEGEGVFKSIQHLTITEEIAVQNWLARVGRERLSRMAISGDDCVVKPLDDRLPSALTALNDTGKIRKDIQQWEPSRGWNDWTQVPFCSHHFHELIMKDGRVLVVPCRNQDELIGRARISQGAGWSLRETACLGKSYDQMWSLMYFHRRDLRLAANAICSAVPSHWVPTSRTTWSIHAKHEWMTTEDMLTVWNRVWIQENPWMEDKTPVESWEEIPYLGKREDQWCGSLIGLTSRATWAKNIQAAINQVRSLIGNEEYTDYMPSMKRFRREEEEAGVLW

[13] = THP-1 cell cytotoxicity, dose response, cytotoxicity control for non-replicating M. tuberculosis project (AID 489025); assay type: functional
[14] = cells; assay type: functional
[15] = target: Induced myeloid leukemia cell differentiation protein Mcl-1 (Homo sapiens, UniProt Q07820); assay type: functional
Induced myeloid leukemia cell differentiation protein Mcl-1, sequence (Q07820 whole entry): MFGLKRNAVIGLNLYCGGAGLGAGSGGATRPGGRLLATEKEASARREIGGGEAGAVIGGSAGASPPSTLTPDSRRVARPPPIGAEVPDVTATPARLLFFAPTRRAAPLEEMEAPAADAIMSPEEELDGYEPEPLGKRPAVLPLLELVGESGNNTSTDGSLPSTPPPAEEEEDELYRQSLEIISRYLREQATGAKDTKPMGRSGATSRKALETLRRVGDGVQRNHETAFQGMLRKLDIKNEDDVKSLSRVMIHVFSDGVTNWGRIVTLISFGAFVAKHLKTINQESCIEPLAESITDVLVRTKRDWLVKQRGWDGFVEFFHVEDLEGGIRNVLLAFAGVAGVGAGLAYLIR

[16] = Vero E6 cell cytotoxicity, dose response, cytotoxicity control for non-replicating M. tuberculosis project, secondary assay (AID 492998); assay type: functional, VeroE6; details: Vero C1008
[17] = test system: Vero; assay: cells; assay type: functional; details: Chlorocebus sabaeus
[18] = microbe, parasite or virus in culture; assay type: functional; details: Mycobacterium tuberculosis
[19] = target: Cytochrome P450 3A4 (Homo sapiens, UniProt P08684);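 also: CYP3A4 tested as one member of a cytochrome P450 panel screen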
Cytochrome P450 3A4, sequence (P08684 whole entry): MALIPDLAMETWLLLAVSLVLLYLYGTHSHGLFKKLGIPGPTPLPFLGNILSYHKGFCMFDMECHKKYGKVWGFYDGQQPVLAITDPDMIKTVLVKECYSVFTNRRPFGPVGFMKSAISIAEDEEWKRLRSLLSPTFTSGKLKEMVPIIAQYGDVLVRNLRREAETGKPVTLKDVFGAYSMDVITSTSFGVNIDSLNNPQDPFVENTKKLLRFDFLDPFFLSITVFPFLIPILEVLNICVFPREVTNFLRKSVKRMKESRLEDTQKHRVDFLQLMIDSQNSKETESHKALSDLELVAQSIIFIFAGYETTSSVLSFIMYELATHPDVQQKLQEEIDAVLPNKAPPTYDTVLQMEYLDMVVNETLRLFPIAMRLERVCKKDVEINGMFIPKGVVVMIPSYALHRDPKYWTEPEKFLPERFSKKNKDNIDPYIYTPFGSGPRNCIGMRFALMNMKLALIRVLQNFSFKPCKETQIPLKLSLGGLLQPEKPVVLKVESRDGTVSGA

[20] = Luminescence Cell-Based Dose Retest to Confirm Inhibitors of Cancer Stem Cells. [Related pubchem assays (depositor defined):AID2717, AID2721]; assay type: functional; details: Homo sapiens
[21] = target: Nonstructural protein 1 (Influenza A virus, UniProt Q194T2); assay type: functional, Influenza A virus (A/California/07/2009(H1N1))
Nonstructural protein 1, sequence (Q194T2 whole entry): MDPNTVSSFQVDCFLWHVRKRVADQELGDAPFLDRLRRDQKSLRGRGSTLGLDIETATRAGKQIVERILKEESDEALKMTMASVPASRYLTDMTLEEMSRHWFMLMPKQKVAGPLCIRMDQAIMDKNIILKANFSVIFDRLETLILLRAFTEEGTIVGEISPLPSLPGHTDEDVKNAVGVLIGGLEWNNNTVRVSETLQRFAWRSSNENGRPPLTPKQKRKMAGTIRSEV

[22] = test system: INS1; assay: INS-1E survival protection against cytokine death – cell-based, luminescence, retest, dose response (AID 449756); assay type: functional; details: Rattus norvegicus;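 also: cell death triggered by IL-1 beta plus TNF-alpha plus IFN-gamma mixture; protective hits raise ATP signal compared with cytokine alone wells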
[23] = HEK-293T viability loss after treatment – luminescence, T-cell screen hits, cytotoxicity control for TCR NF-kB inhibitor project, dose response (AID 489026); assay type: functional, cell-based;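 also: cells exposed to compound about 14 hours before the viability readout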
[24] = target: T2, Polyadenylate-binding protein 1 (Homo sapiens, UniProt P11940); assay: MLLE domain peptide-binding blockers, IC50 – biochemical, fluorescence polarization, FITC-PAM2 peptide, dose response (AID 602259); assay type: functional; details: read-out: IC50_Mean
T2 sequence (P11940 whole entry, the tested form may be a part): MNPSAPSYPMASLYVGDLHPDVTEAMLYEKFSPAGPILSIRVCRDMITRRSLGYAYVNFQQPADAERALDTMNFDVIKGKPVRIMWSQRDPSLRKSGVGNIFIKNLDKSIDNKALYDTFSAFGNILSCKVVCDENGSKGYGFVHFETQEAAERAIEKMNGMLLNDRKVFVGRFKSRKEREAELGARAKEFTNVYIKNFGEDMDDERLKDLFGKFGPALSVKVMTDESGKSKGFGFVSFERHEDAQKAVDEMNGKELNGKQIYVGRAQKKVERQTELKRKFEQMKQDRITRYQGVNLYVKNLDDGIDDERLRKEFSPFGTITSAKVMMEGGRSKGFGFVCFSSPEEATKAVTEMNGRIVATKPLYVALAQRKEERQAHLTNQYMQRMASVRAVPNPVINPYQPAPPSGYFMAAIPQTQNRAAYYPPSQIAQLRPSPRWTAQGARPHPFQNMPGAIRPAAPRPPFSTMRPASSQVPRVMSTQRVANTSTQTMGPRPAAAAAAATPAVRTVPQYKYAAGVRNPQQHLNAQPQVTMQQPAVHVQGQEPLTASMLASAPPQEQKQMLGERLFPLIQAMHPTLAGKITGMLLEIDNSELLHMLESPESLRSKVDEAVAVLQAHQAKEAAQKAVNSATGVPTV

[25] = target: T2, Polyadenylate-binding protein 1; assay: MLLE binding blockers, Cy5 peptide tracer – biochemical, fluorescence polarization, Cy5-PAM2 peptide, secondary, miRNA deadenylation inhibitor project, dose response (AID 602260); assay type: functional; details: read-out: IC50_Mean

COc1ccccc1C(=O)NNC(=S)NC(=O)c1ccco1
AC50 [1]: 1.42 µM (active)

c1ccc(Cn2nnc3c(N4CCCCCC4)ncnc32)cc1
IC50 [2]: 49.5 µM (active) | CC50 [3]: 17 µM (active)

COc1ccc(-c2ccc([C@H]3[C@H](C#N)N(C(=O)c4cccc(F)c4)[C@H]3CO)cc2)cc1
AC50 [4]: 2.24 µM (active) | AC50 [5]: 2.71 µM (active) | AC50 [6]: 2 µM (active) | AC50 [7]: 1.85 µM (active)

COc1cc2c(cc1OC)C1=C(C#N)CN(CC(=O)O)CN1CC2
EC50 [8]: > 112 µM (not active) | EC50 [9]: > 112 µM (not active) | IC50 [10]: 34.1 µM (active)

O=C1CCC/C(=N/Nc2ccc(Cl)cc2)C1
EC50 [11]: > 150 µM (inactive) | IC50 [12]: 93.3 µM (active) | CC50 [13]: > 40 µM (active) | IC50 [14]: 16.9 µM (active)

Cc1c(NS(=O)(=O)c2cc(NC(=O)CCN3CCCC(C)C3)ccc2Cl)c(=O)n(-c2ccccc2)n1C (stereo unspecified)
IC50 [15]: 4.67 µM (not active)

O=C(Nc1ccccn1)c1ccc([N+](=O)[O-])o1
CC50 [16]: 13.4 µM (active) | CC50 [13]: 26.3 µM (active) | IC50 [14]: 13.6 µM (active) | CC50 [17]: > 25 µM (active)

C[C@@]12C(=O)Nc3ccc(Cl)cc3C(=O)N1[C@H]1c3ccccc3OC[C@@H]1[C@@H]2c1ccccc1
AC50 [1]: 0.611 µM (active)

O=C(N/N=C/c1ccc(O)c(O)c1)/C(O)=C\C1=NC2(CCCC2)Cc2ccccc21
IC50 [15]: 3.56 µM (active)

C[C@@H]1CN([C@@H](C)CO)C(=O)c2cccc(NC(=O)c3nc4ccccc4s3)c2O[C@H]1CN(C)C(=O)Nc1cccc2ccccc12
AC50 [4]: 0.595 µM (active) | AC50 [6]: 0.802 µM (active) | AC50 [7]: 0.766 µM (active)

Nc1ccc(-c2nc3cc(-c4nc5ccccc5o4)ccc3[nH]2)cc1
IC50 [2]: 33.4 µM (active) | CC50 [3]: 48.2 µM (active) | CC50 [18]: > 40 µM (active)

CC1(C)CC(=O)C(=CNc2cccc(/N=C/C3=C(O)CC(C)(C)CC3=O)n2)C(=O)C1
IC50 [15]: 1.31 µM (not active)

Cc1cnc(CNc2cc(-c3ccccc3C)ncn2)cn1
AC50 [19]: inconclusive

C/C(=N\NC(=O)c1cc(C)nc2ccccc12)c1ccccn1
AC50 [20]: 3.37 µM (active) | IC50 [21]: 2.23 µM (active) | AC50 [22]: 0.626 µM (active) | IC50 [23]: > 80 µM (inactive)

Cc1cc[n+](-c2[n-]c(=O)sc2C=NNC(=O)c2ccncc2)cc1
IC50 [24]: 36 µM (inactive) | IC50 [12]: 83.8 µM (active) | IC50 [25]: > 66 µM (inactive)
